SMILES strings stand for the structures.

Broadly, the melting point is the temperature of the solid-liquid transition. `O=C(NCCO)/C(=C/c1ccc(Cl)cc1)NC(=O)c1ccc(OCCc2ccc(F)cc2)cc1` returned a melting point of 60 to 63 °C.
Turning to `Cc1nc(-n2cccc(C(=O)Nc3ccccc3)c2=O)sc1C(=O)NCc1ccccc1`, the melting point lay within 225 to 227 °C.
With `O=C(Nc1cccc(C(F)(F)F)c1)Nc1ccc2[nH]c(C(F)(F)F)nc2c1` the figure was 213 to 215 °C; with `COc1cc(NS(=O)(=O)c2ccc(Cl)cc2)c(C(=O)Nc2ccc(S(=O)(=O)F)cc2)cc1OC`, 216 to 219 °C; with `COc1cncc(OC)c1CCCOc1cccnc1Oc1cccc(Br)c1`, 106 to 154 °C.
Take `O=c1c(Cl)c(N2CCC(c3ccccc3)CC2)ccn1Cc1ccc(OC(F)(F)F)cc1`: the melting point is 169 °C.
With `O=C(O)c1c2c(nc3ccc(F)cc13)-c1ccc(C3CCCCC3)cc1CC2` the figure was 118 to 121 °C.
The figure for `CC(=O)SCCc1cn2cccnc2n1` is 122 to 124 °C; for `CCCCC#CCCOc1cc(C=O)ccc1OC` it is 42 to 43 °C.
With `COCCCCCCCCCCCC(=O)NCc1ccccc1` the figure was 77.7 to 79.4 °C.
`O=Cc1c(Cl)nc(-c2ccccc2)n1Cc1ccccc1` came in with a melting point of 117 to 118 °C.
The figure for `CN1CCCC2(OCCO2)C1Cc1cccc2[nH]ccc12` (stereo not drawn) is 181 to 186 °C.
The figure for `C#Cc1ccc(C23OCC(c4ccc(F)c(F)c4)(CO2)CO3)cc1` is 204 to 205 °C; for `CC(=O)c1ccc(-n2c(-c3sc(Nc4ccc(Cl)cc4)nc3-c3ccccc3)nc3ccccc3c2=O)cc1` it is 218 to 220 °C.
The figure for `Cc1c(C)c2c(c(C)c1OCc1ccccc1)CC(C)(CN1CCN(c3ccccc3)CC1)O2` (stereo not drawn) is 120 to 121 °C; for `CC(=O)Nc1cccc(C2=NNC(=O)C3CC23)c1` (stereo not drawn) it is 200 to 202 °C.
In turn, `CCCc1c(OCCCOc2ccccc2C(=O)O)ccc(C(C)=O)c1O` displayed a melting point of 105 to 108 °C.
With `CCCCCCCCOc1cc(OC)cc(N)c1OCOC` the figure was 59 °C; with `O=S1(=O)CC2C(C1)N(CCO)CCN2CCO` (stereo not drawn), 145 to 147 °C; with `O=C(N1CCC(n2c(=O)[nH]c3ncccc32)CC1)n1ccnc1`, 226 °C.
Turning to `Cc1cc(C)c2nc(CO)n(C)c2n1`, the melting point lay within 178 to 179 °C.
The figure for `COc1ccc(CN(C)CCCOc2ccc(NC(=O)c3cccc4c(=O)c5cccc(F)c5[nH]c34)c(C)c2)cc1OC` is 130 °C.
With `CC1(C)Oc2ccc(C#N)cc2C(N(C(N)=O)c2ccc3c(c2)CN(Cc2ccccc2)C3)C1O` (stereo not drawn) the figure was 168 to 175 °C.
Turning to `CN(C)Cc1cccc(-c2cc3c(Nc4ccc(F)c(Cl)c4)ncnc3[nH]2)c1`, the melting point lay in the range of 218 to 220 °C.
The figure for `Cc1cc(F)ccc1-c1nc(OCC(CO)CO)nc2c1ccc(=O)n2-c1c(F)cccc1F` is 77 to 81 °C; for `CC(C)(C)N1CC(c2cccc(C(F)(F)F)c2)OCC1=O` (stereo not drawn) it is 81 to 83 °C.
The compound `CCN(C)C(=O)C(Cc1ccc(C#N)cc1)NC(=O)C(Cc1ccc(OC)cc1)S(=O)(=O)Nc1ccc(Cl)c(Cl)c1` (stereo not drawn) showed a melting point of 192 °C.
As for `CCN1c2ccc(C)cc2C2CN(CCCC(=O)c3ccc(F)cc3)CCC21` (stereo not drawn), the melting point lay in the range of 150 to 153 °C.
The figure for `O=C(O)C1CC2CCCCC2CN1C(S)c1nn[nH]n1` (stereo not drawn) is 165 to 172 °C.
`CC(C)(C)OC(=O)Nc1cc(N2CCS(=O)(=O)CC2)c(C#Cc2ccccc2)cc1[N+](=O)[O-]` displayed a melting point of 217 to 221 °C.
For the compound `Fc1cc(CC2(Cc3ccnc(F)c3)c3ccccc3Oc3ncccc32)ccn1`, the melting point lay in the range of 185 to 189 °C.
With `NCCCCCCCC1OCC2(CO1)COC(CCCCCCCN)OC2` (stereo not drawn) the figure was 74 to 75 °C.
The compound `IC#CCn1c2ccccc2c2ccccc21` displayed a melting point of 151 to 152 °C.
The figure for `O=C(CCCCCNC(=O)Cc1ccc(-c2ccccc2)cc1)NO` is 226 to 227 °C; for `N#Cc1cccc(C2C(=O)N(Cc3ccccc3)Cc3cncn32)c1` (stereo not drawn) it is 163 to 165 °C.
The figure for `CCOC(=O)COc1ccc(C(=O)[C@H](Cc2ccc(OC)cc2)NC(=O)OC(C)(C)C)cc1` is 95 to 97 °C; for `CC(C#Cc1cccc(C2=NCC(c3ccccc3)O2)c1)N(O)C(N)=O` (stereo not drawn) it is 145 to 146 °C.
With `CC(C)(C)N(O)C(=O)C1CCC(C2CCCCC2)CC1` (stereo not drawn) the figure was 119 to 120 °C.
As for `CCOC(=O)Cc1oc(-n2cnc3ccccc32)nc1-c1ccc(Cl)cc1`, the melting point lay within 152 to 153 °C.
As to `N#Cc1ccc(Oc2ccc(F)cc2)nc1`, the melting point lay in the range of 120 to 121 °C.
Take `CCOC(=O)C(=O)Nc1cccc(C#N)c1`: the melting point fell in the range of 149 to 150 °C.
With `CSc1ccc(NC(=O)N(O)C(C)C)cc1` the figure was 150 °C; with `COc1ccc(C(=O)O)c(Cl)c1Cl`, 224 to 226 °C; with `Oc1ccc(-c2ccc3c(Cl)c(O)ccc3n2)cc1`, 215 to 216 °C.
The figure for `CCn1c(=O)sc2cc(C(O)c3ccc([N+](=O)[O-])cc3)ccc21` (stereo not drawn) is 160 to 162 °C.
With `CC1(C)C2CC[C@]1(C)C(=O)C(C(=O)Nc1cccc(C(F)(F)F)c1)C2=O` (stereo partly drawn) the figure was 60 to 62 °C; with `COC(=O)c1cc(C(=O)c2c(C)c(-c3cccc(OCC(=O)OC(C)(C)C)c3)c3ccccn23)ccc1N`, 81 °C; with `CCOC(=O)c1c[nH]c(=S)n1C1CCc2cc(F)cc(F)c2C1` (stereo not drawn), 187 to 189 °C.
Turning to `OC(CNc1ccnc2ccccc12)c1ccccc1` (stereo not drawn), the melting point lay in the range of 289 to 290 °C.
`CCOC(=O)COc1ccc(C2=CC(=O)CCC2CC)c(Cl)c1Cl` (stereo not drawn) registered a melting point of 110 to 112 °C.
With `COc1nc(OC)c(C(C)C)c(C(C#N)c2cc(C)cc(Br)c2)n1` (stereo not drawn) the figure was 123 to 124 °C; with `COc1cc(C(=O)N2CCN(C(=O)OC(C)(C)C)C(C(=O)O)C2)cc(OC)c1OC` (stereo not drawn), 188 to 190 °C.
With `CN1c2ccccc2[C@H]2Cc3ccccc3[C@H]21` (relative stereo) the figure was 76 to 77 °C; with `Cc1ccnc(C(=O)c2[nH]c3ccc(Cl)cc3c2CC(=O)N2CCC(N)C2)c1` (stereo not drawn), 179 °C.
`C=CCN(CC=C)c1cc(CCl)nc(N)n1` gave a melting point of 53 to 55 °C.
With `COc1nc(C)cc(-n2cncn2)n1` the figure was 98 to 98.5 °C; with `O=C(c1ccc2[nH]ccc2c1)N1CCN(CCc2ccc([N+](=O)[O-])cc2)CC1`, 204 to 206 °C.
With `Cc1ccc(S(=O)(=O)N2CCCC2c2ccc(F)cc2)cc1` (racemic) the figure was 128 °C.
The figure for `CCOC(=O)COc1c2ccccc2cc2c1c(C(=O)C(N)=O)c(CC)n2Cc1ccccc1` is 130 to 131 °C; for `O=CC(=Cc1ccc(Cl)cc1Cl)C1CCOCC1` it is 82 to 85 °C; for `O=C1CCN(CC(c2ccccc2)c2ccccc2)CC1C1(O)CCN(CC(c2ccccc2)c2ccccc2)CC1` (stereo not drawn) it is 125 to 127 °C.
On to `COc1ccc2c(c1)C(=NO)c1c-2cnc2ccccc12`, for which the melting point was 270 to 271 °C.
With `COCCOCCOc1cc(N)c(C#N)cc1[N+](=O)[O-]` the figure was 106 to 108 °C.
